The target of one test is Collagenase 3 (Homo sapiens, UniProt P45452). In words: Inhibition of MMP13.
The target of a further test is T1, Matrilysin (Homo sapiens, UniProt P09237).
T1 sequence (P09237 whole entry): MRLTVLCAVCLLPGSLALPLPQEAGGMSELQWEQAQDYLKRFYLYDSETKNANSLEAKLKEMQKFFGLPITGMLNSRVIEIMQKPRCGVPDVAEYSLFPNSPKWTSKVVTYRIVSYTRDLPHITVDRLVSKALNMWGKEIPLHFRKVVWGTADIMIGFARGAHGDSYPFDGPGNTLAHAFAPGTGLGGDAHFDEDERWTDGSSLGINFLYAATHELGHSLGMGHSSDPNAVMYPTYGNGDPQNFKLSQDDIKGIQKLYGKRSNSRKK
In words: Inhibition of MMP7.

Test [1] concerns the target 72 kDa type IV collagenase (Homo sapiens, UniProt P08253). Nature of the test: Inhibition of MMP2.
In test [2] the target is Disintegrin and metalloproteinase domain-containing protein 17 (Homo sapiens, UniProt P78536). Nature of the test: Inhibition of TNF-alpha converting enzyme.
The target of the next test is Neutrophil collagenase (Homo sapiens, UniProt P22894). Nature of the test: Inhibition of MMP8.
Test [3] deals with Matrix metalloproteinase-9 (Homo sapiens, UniProt P14780). In words: Inhibition of MMP9.

Structures are written as SMILES. A value given as a limit tells only on which side of the number the result lay.

The term Ki denotes the dissociation constant of the complex between target and ligand, obtained from inhibition or displacement.

72 kDa type IV collagenase, sequence (P08253 whole entry, the tested form may be a part): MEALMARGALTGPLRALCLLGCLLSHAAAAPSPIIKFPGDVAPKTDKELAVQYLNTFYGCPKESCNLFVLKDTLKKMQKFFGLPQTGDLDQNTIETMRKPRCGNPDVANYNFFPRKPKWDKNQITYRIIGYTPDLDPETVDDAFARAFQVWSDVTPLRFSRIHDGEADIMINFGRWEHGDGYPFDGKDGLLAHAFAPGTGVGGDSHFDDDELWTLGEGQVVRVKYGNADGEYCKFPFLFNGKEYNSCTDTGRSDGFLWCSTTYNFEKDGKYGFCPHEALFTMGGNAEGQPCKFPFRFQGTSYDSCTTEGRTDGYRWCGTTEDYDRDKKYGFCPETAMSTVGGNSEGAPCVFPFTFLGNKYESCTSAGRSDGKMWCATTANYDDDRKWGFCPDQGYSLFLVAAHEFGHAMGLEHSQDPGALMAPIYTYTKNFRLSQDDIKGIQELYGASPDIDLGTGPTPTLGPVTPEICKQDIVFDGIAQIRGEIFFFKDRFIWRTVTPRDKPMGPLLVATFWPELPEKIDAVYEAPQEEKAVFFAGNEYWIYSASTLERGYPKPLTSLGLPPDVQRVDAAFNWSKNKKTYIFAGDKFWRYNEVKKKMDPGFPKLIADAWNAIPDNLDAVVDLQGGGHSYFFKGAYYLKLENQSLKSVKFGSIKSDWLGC
Disintegrin and metalloproteinase domain-containing protein 17, sequence (P78536 whole entry, the tested form may be a part): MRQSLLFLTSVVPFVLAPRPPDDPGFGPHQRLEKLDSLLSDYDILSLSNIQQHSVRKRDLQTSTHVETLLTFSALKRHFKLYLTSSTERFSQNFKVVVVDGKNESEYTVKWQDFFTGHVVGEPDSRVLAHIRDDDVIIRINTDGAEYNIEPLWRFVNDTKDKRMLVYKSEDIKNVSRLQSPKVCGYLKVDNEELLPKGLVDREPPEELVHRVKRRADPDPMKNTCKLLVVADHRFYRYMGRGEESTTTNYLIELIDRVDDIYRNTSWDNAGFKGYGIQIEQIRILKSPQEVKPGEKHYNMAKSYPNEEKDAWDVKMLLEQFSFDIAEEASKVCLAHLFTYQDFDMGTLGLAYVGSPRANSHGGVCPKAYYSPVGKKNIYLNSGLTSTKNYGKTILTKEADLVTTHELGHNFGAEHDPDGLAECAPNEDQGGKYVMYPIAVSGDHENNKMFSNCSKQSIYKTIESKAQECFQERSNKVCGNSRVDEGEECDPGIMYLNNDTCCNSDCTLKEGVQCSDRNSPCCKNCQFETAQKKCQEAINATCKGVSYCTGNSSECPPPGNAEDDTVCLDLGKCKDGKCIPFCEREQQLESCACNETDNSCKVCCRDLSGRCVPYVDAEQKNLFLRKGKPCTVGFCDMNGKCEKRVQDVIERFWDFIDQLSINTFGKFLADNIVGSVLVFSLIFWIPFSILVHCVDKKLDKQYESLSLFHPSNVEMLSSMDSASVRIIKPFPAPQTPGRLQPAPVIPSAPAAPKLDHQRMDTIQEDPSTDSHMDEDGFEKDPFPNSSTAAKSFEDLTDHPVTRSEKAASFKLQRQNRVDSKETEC
Neutrophil collagenase, sequence (P22894 whole entry): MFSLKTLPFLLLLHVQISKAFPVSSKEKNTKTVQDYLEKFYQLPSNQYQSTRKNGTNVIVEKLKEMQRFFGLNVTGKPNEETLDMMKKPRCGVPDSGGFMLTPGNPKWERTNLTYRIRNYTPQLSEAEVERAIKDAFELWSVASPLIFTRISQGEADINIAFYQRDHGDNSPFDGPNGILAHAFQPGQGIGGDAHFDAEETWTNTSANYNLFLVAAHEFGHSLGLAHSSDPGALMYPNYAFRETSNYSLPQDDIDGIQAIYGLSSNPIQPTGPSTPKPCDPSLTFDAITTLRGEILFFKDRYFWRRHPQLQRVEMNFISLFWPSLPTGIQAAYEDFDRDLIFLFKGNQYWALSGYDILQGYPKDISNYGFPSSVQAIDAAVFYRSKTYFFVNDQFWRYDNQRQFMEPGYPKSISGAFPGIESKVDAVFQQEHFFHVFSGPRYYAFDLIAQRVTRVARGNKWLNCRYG
Matrix metalloproteinase-9, sequence (P14780 whole entry, looked up): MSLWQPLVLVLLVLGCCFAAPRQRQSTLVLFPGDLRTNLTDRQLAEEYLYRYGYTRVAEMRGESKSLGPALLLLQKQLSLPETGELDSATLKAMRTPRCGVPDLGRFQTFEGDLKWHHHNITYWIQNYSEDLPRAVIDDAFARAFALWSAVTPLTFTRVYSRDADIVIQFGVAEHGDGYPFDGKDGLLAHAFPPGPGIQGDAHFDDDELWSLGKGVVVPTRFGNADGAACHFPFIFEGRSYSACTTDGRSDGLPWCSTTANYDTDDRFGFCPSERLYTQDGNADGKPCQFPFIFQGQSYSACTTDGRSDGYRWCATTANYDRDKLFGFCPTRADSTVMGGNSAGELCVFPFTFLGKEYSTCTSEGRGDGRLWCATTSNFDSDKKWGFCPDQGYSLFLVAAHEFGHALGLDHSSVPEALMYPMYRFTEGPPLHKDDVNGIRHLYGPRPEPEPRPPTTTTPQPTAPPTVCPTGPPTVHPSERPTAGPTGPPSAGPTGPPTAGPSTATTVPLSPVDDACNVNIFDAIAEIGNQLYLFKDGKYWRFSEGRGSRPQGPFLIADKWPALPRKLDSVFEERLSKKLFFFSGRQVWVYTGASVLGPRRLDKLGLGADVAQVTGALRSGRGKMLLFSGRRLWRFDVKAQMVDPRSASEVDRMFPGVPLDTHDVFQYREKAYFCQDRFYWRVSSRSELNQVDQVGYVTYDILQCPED

Consider `CC#CCOc1ccc(S(=O)(=O)N2CC[C@@H](S)C2)cc1`, for which the Ki at Collagenase 3 was 1200 nM; at Matrilysin, above 6000 nM; in test [1], 5000 nM.

As for `CC#CCOc1ccc(S(=O)(=O)N(C)CC(=O)NO)cc1`, the inhibition constant (Ki) came to 17 nM at Collagenase 3, 3400 nM at Matrilysin, 10 nM in test [2] and 27 nM in test [1].

For `CC#CCOc1ccc(S(=O)(=O)N(C)CCS)cc1`, the Ki was 1300 nM at Neutrophil collagenase; 2000 nM on Collagenase 3; 33000 nM on Matrilysin; 52 nM in test [2]; 5700 nM in test [1]; 200 nM in test [3].

As to `CC#CCNc1ccc(S(=O)(=O)N2CC[C@@H](S)C2)cc1`, in test [2], the affinity corresponds to a Ki of 5 nM.

In test [2], `CC#CCNc1ccc(S(=O)(=O)N2CC(S)C2)cc1` had a Ki of 11 nM.

In test [2], `CC#CCOc1ccc(S(=O)(=O)N2CC(S)C2)cc1` had a Ki of 13 nM.

Turning to `CC#CCOc1ccc(S(=O)(=O)N2CCCC(S)C2)cc1` (racemic), the Ki was 700 nM on Collagenase 3, above 3000 nM at Matrilysin, 55 nM in test [2] and above 3000 nM in test [1].

The molecule `CN1CCN(CC#CCOc2ccc(S(=O)(=O)N3CC[C@@H](S)C3)cc2)CC1` returned a Ki in test [2] of 3400 nM.

With `CC#CCOc1ccc(S(=O)(=O)N(C)C[C@H](C)S)cc1`, the Ki in test [2] was 27 nM. This Ki lies about 130-fold lower than the previous one.

Regarding `O=S(=O)(c1ccc(OCC#CCN2CCCCC2)cc1)N1CC[C@@H](S)C1`, the Ki in test [2] worked out at 530 nM.

The values above are taken from ChEMBL document CHEMBL1147178, “Novel thiol-based TACE inhibitors: rational design, synthesis, and SAR of thiol-containing aryl sulfonamides” (Bioorg Med Chem Lett, 2007).
